According to patent US20240174690A1, “ANNULATED 2-AMINO-3-CYANO THIOPHENES AND DERIVATIVES FOR THE TREATMENT OF CANCER” (BOEHRINGER INGELHEIM INTERNATIONAL GMBH, priority 2021, published 2024):

What was measured:
Format in all cases: cell-based
[1] = test system: LOVO cells; assay: LOVO CTG proliferation assay (120 h) (CRC, G13D); settings: Homo sapiens, CTG 120 h
Summary of the method: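 IC50 comes from a four-parameter fit of CellTiter-Glo viability, expressed as RLU relative to DMSO wells. Compound exposure lasted 120 h in LOVO cells seeded the day before at 1000 cells/well in DMEM with 10% fetal calf serum.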

[2] = test system: NCI-H2122 cells; assay: NCI-H2122 CTG proliferation assay (120 h) (NSCLC, G12C); settings: Homo sapiens
Summary of the method: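 Proliferation was read by CellTiter-Glo luminescence after 120 h of compound exposure, starting one day after seeding 200 NCI-H2122 (G12C) cells per well in RPMI/10% FCS. RLU relative to DMSO wells gave percent viability, and four-parameter nonlinear regression gave IC50.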

[3] = test system: KRAS G12C-dependent Ba/F3 cells; assay: Ba/F3 proliferation assay, KRAS G12C; settings: Mus musculus, BaF3, 72 h, AlamarBlue
Summary of the method: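 Cells: murine Ba/F3 transduced with mutant KRAS by retrovirus, selected with 1 μg/mL puromycin, then weaned off IL-3. Compound exposure in duplicate, followed by AlamarBlue viability staining and curve fitting.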

`C[C@H](Oc1cc(N2CCNC3(CC3)C2)nc(-c2noc3c2CCC[C@@]32CCCc3sc(N)c(C#N)c32)n1)[C@@H]1C[C@@H](F)CN1C` [II-165] gave an IC50 [1] of 303 nM, an IC50 [2] of 1790 nM and an IC50 [3] of 109 nM.

With `C[C@H](Oc1cc(N2CCN(C)C3(COC3)C2)nc(-c2noc3c2CCC[C@@]32CCCc3sc(N)c(C#N)c32)n1)[C@@H]1C[C@@H](F)CN1C` [II-148] the IC50 [1] was 109 nM, the IC50 [2] was 2220 nM and the IC50 [3] was 99 nM.
